Patent US7767714B2, “Method of preventing infectious diseases” (Ajinomoto Co., Inc., priority 2002, dated 2010)

How the values were obtained:
[1] = test system: influenza virus A/Aichi/2/68 (H3N2); assay: Body weight change of mice after influenza virus infection (Example 1); format: in vivo, BALB/c female mice; conditions: mouse; feed with 0.5 wt % L-cystine and/or 0.2 wt % L-theanine for 2 weeks; 10^5 PFU nasally; versus control group on basic feed; FIG. 1
Text: 4-week-old BALB/c female mice in the growth period were preliminarily raised on a solid feed (CRF-1 solid feed, Charles River Japan, inc.) for one week, then preliminarily raised on a powder feed (CRF-1 powder feed, Charles River Japan, inc.) for one week, and when they reached 6 weeks of age, the feed was changed to a feed containing 20 wt % of casein as a protein source (basic feed: composition: α-corn starch 68.3 wt %, casein 20 wt %, mineral mixture 3.5 wt %, vitamin mixture 1 wt %, cellulose powder 2 wt %, corn-oil 5 wt %, choline bitartrate 0.2 wt %), the same feed supplemented with 0.5 wt % of L-cystine as an amino acid, the same feed supplemented with 0.2 wt % of L-theanine as an amino acid, and the same feed supplemented with 0.5 wt % of L-cystine and 0.2 wt % of L-theanine as amino acids (the present invention), and further raised for 2 weeks. Those continuously raised on the basic feed were used as a control group. Ten mice were used for the test for each group.
At two weeks of the amino acid addition feed administration, 10^5 PFU influenza virus A/Aichi/2/68 (H3N2) was nasally inoculated, the body weight of the mice was measured immediately before virus inoculation and day 5 of infection.
Thus, it was clarified that a concurrent use of L-theanine enhanced the action of L-cystine.

[2] = test system: Escherichia coli; conditions: Chem. Pharm. Bull. 28, 3549-3554, 1980; cited from earlier work
[3] = test system: Staphylococcus aureus; conditions: J. Biol. Chem. 171, 387, 1947; Chem. Pharm. Bull. 28, 3549-3554, 1980; cited from earlier work
[4] = test system: trichomonas; conditions: extremely high concentration of theanine, in vitro cultivation system; Nature 166, 352, 1950; cited from earlier work

Row | Structure (SMILES) | body weight change at day 5 of influenza virus infection [1] | growth of Escherichia coli [2] | growth of Staphylococcus aureus [3] | trichomonas growth [4]
1 | N[C@@H](CSSC[C@H](N)C(=O)O)C(=O)O [L-cystine] | suppressed somewhat |  |  | 
2 | CCNC(=O)CC[C@H](N)C(=O)O [L-theanine] | body weight decrease of the same level as that of the control group |  |  | 
3 | CCNC(=O)CC[C@H](N)C(=O)O [theanine] |  | suppression of growth of Staphylococcus aureus and Escherichia coli | suppression of growth of Staphylococcus aureus | suppression of trichomonas growth
